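All cell lines were grown in 96-well plates and treated with compound for 48 hours. TGI marks complete inhibition of growth.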

Test systems include DLD-1 colon; DMS 114 small cell lung; HOP-92 NSCLC; RXF 393 renal; SF-268 CNS; SF-295 CNS; SK-OV-3 ovarian; SNB-78 CNS; SR leukemia; XF 498 CNS; DMS 273 small cell lung; KM20L2 colon; M19-MEL melanoma.
Holding throughout (assay): growth of human tumour cells (NCI), 48 h

For the compound `Clc1ccc(C2SCc3nc4ccccc4n32)cc1Cl` (stereo not drawn), the TGI in the assay on DLD-1 colon was determined as 25.2 µM; in the assay on DMS 114 small cell lung it was 36 µM; with HOP-92 NSCLC, 27.4 µM; in the assay on RXF 393 renal, 15.7 µM; in the assay on SF-268 CNS it was 37.6 µM; in the assay with SF-295 CNS it was 24.2 µM. For the same compound, the TGI with SK-OV-3 ovarian came to 36.2 µM; in the assay on SNB-78 CNS it was 29.1 µM; in the assay on SR leukemia it was 55.1 µM; with XF 498 CNS, 24.4 µM.
Consider `CCC(=O)c1c(NOC2OC(COC(C)=O)C(OC(C)=O)C(OC(C)=O)C2OC(C)=O)nc(OC)n(C)c1=O` (stereo not drawn), for which the TGI in the assay with DLD-1 colon, in the assay with DMS 114 small cell lung, in the assay on DMS 273 small cell lung, in the assay with KM20L2 colon, in the assay on M19-MEL melanoma and with RXF 393 renal was over 100 µM each time. The TGI in the assay with SF-268 CNS, with SF-295 CNS, in the assay with SNB-78 CNS, with SR leukemia and with XF 498 CNS was over 100 µM throughout.
Consider `NCCCNCCCCN(CCCN)/[N+]([O-])=N\O`, for which the TGI with DLD-1 colon, with DMS 114 small cell lung, in the assay on DMS 273 small cell lung, in the assay with HOP-92 NSCLC, with KM20L2 colon and in the assay with M19-MEL melanoma was over 100 µM throughout. Besides, the TGI in the assay on RXF 393 renal was over 100 µM; with SF-268 CNS, over 100 µM; in the assay on SF-295 CNS, over 100 µM; in the assay with SNB-78 CNS it was over 100 µM; in the assay with SR leukemia, 83.9 µM.
As for `COC(=O)c1c(N)n[nH]c1N`, the TGI in the assay with DLD-1 colon, with DMS 273 small cell lung, in the assay with HOP-92 NSCLC, in the assay with KM20L2 colon, with M19-MEL melanoma and in the assay on RXF 393 renal was over 100 µM each time. In addition, the TGI with SF-268 CNS, with SF-295 CNS, in the assay on SK-OV-3 ovarian, with SNB-78 CNS, with SR leukemia and with XF 498 CNS was over 100 µM in each case.
For `CC(=O)c1ccc(NC(=O)C(=O)Nn2c(=S)[nH]c3ccccc3c2=O)cc1`, the TGI with DLD-1 colon, with DMS 114 small cell lung, in the assay with HOP-92 NSCLC, in the assay with KM20L2 colon, in the assay on M19-MEL melanoma and with RXF 393 renal was over 100 µM each time. In addition, the TGI in the assay with SF-268 CNS, in the assay with SF-295 CNS, in the assay with SK-OV-3 ovarian, in the assay with SNB-78 CNS, in the assay on SR leukemia and with XF 498 CNS was over 100 µM throughout.
For the compound `O=C(Nc1nc2ncn(CCNCc3ccccc3)c2c(=O)[nH]1)c1ccccc1`, the TGI in the assay on DLD-1 colon, in the assay with DMS 114 small cell lung, in the assay with DMS 273 small cell lung, in the assay on HOP-92 NSCLC, with KM20L2 colon and with M19-MEL melanoma was over 100 µM each time. In addition, the TGI with RXF 393 renal, in the assay on SF-268 CNS, in the assay with SF-295 CNS, in the assay with SK-OV-3 ovarian, in the assay with SNB-78 CNS and in the assay on SR leukemia was over 100 µM each time.
In the case of `Cc1cc(C)nc(NS(=O)(=O)c2ccc(Nc3c4ccc(Cl)cc4nc4c(C(=O)Nc5ccc(S(N)(=O)=O)cc5)cccc34)cc2)n1`, the TGI was 32 µM in the assay on DLD-1 colon; 65 µM in the assay on DMS 114 small cell lung; 33.1 µM in the assay on KM20L2 colon; over 100 µM in the assay on M19-MEL melanoma; 26.7 µM in the assay on RXF 393 renal; over 100 µM in the assay on SF-268 CNS. The TGI in the assay with SF-295 CNS is 36.9 µM; in the assay on SK-OV-3 ovarian, 30.5 µM; in the assay on SNB-78 CNS, over 100 µM; in the assay with SR leukemia, 51.5 µM; in the assay with XF 498 CNS, 45.6 µM.
Turning to `O=C(CC1(O)C(=O)Nc2c(Cl)cc(Cl)cc21)c1cccc2ccccc12` (stereo not drawn), the TGI was found to be 33 µM in the assay on DLD-1 colon; 35.6 µM in the assay on DMS 114 small cell lung; 27.5 µM in the assay with DMS 273 small cell lung; 34.1 µM in the assay on KM20L2 colon; 37.1 µM in the assay with RXF 393 renal; 40.4 µM in the assay with SF-268 CNS. Also, the TGI stood at 29.2 µM with SF-295 CNS; 30.2 µM in the assay on SK-OV-3 ovarian; 46.6 µM with SNB-78 CNS; 38.5 µM in the assay on SR leukemia; 34.8 µM in the assay with XF 498 CNS.
Turning to `O=CC[C@H]1CCc2ccccc2C12CCC(=O)CC2`, the TGI in the assay on DLD-1 colon, in the assay on DMS 114 small cell lung, in the assay on HOP-92 NSCLC, in the assay with KM20L2 colon, with M19-MEL melanoma and in the assay with SF-268 CNS was over 100 µM each time. Besides, the TGI in the assay on SF-295 CNS, with SK-OV-3 ovarian and in the assay with XF 498 CNS was over 100 µM in each case.
On to `CC(C)(C)c1cc2c3c(c1)C(C(F)(F)F)(C(F)(F)F)O[Te]3(C)OC2(C(F)(F)F)C(F)(F)F`, for which the TGI in the assay with DLD-1 colon, in the assay with DMS 114 small cell lung, with DMS 273 small cell lung, in the assay with KM20L2 colon, in the assay on M19-MEL melanoma and in the assay with RXF 393 renal was over 100 µM each time. The TGI with SF-268 CNS, with SF-295 CNS, in the assay with SK-OV-3 ovarian, in the assay with SNB-78 CNS, in the assay with SR leukemia and in the assay with XF 498 CNS was over 100 µM each time.
As for `O=C(NP(=O)(N1CC1)N1CC1)c1cc(I)ccc1I`, the TGI in the assay with DLD-1 colon was over 100 µM; with DMS 114 small cell lung, 99.2 µM; in the assay on DMS 273 small cell lung, over 100 µM; in the assay with HOP-92 NSCLC, over 100 µM; with KM20L2 colon, over 100 µM; with M19-MEL melanoma it was over 100 µM. The TGI in the assay with RXF 393 renal is over 87.8 µM; in the assay with SF-268 CNS, over 100 µM; with SF-295 CNS, over 100 µM; with SK-OV-3 ovarian, 89.9 µM; with SNB-78 CNS it was over 100 µM; with XF 498 CNS, over 100 µM.
With `Fc1ccccc1C1CC(c2ccc3ccccc3c2)=Nc2ccccc2S1` (stereo not drawn), the TGI in the assay with DMS 273 small cell lung, with KM20L2 colon, in the assay with M19-MEL melanoma, in the assay on RXF 393 renal, in the assay on SF-268 CNS and in the assay with SF-295 CNS was over 100 µM each time. Moreover, the TGI in the assay with SK-OV-3 ovarian, with SNB-78 CNS, with SR leukemia and with XF 498 CNS was over 100 µM in each case.

Values taken from PubChem BioAssay (NCI).
